Measured values as given in paper PMC7064328 (Environmental Health Perspectives, 2020).

How the values were obtained:
maternal liver = experiment: Maternal liver histopathology (H&E); type: in vivo, mouse (CD-1); conditions: for Incidence of livers with adverse outcomes including cytoplasmic alteration: all dose groups, E11.5 and E17.5; for CA, any severity: % / CA, any severity: N / CA, marked: % / CA, marked: N / CA, minimal to mild: % / CA, minimal to mild: N / CA, moderate: % / CA, moderate: N / Focal regions of classic necrosis: % / Focal regions of classic necrosis: N / Increase in cell death: % / Increase in cell death: N / Increase in mitotic figures: % / Increase in mitotic figures: N / Vacuolation, any severity: % / Vacuolation, any severity: N / Vacuolation, mild: % / Vacuolation, mild: N / Vacuolation, minimal: % / Vacuolation, minimal: N / Vacuolation, moderate: % / Vacuolation, moderate: N: maternal liver
Source text: From each uterus, first, viable embryos and their matched placentas were collected in succession within a horn and immediately snap frozen ( n=2–5 per litter ), and subsequent embryos were collected for growth measurements ( n=2–11 per litter ). Additional placentas were collected and placed in 4% paraformaldehyde (PFA) for histological analysis (Block 2 only). Amniotic fluid was collected by needle aspiration from litters euthanized at E11.5 and snap frozen in liquid nitrogen. Embryo livers were collected from litters euthanized at E17.5 and snap frozen in liquid nitrogen. Dam livers were weighed, a portion of the left lateral lobe was placed in 4% PFA for histology, and another portion of the same lobe was snap frozen in liquid nitrogen. A third liver section was obtained from Block 2 dams and fixed in McDowell and Trump’s fixative for electron microscopy (EM). Gross lesions were collected when observed and placed in 4% PFA for histology. Dam kidneys were removed, a cross section was prepared from the right kidney, a longitudinal section was prepared from the left kidney, and both sections were fixed in 4% PFA for histological analysis.
Dam livers, kidneys, and placentas were trimmed and embedded by the NIEHS Mouse Embryo Phenotyping Core. Tissues collected at necropsy were fixed in 4% PFA for 72 h and paraffin embedded, and 5-μm sections were prepared and stained with hematoxylin and eosin (H&E). Pathology was evaluated and a pathology review conducted by S.A.E. Diplomate American College of Veterinary Pathologists (DACVP). Pathology reviews were conducted as an informed approach analysis [e.g., nonblinded analysis; see Sills et al. ([2019])]. Select tissue slides were scanned using the AT2 Scanner (Aperio). Images were then captured for publication using the ImageScope software; version 12.3.0.5056 (Aperio). Serum and urine obtained from dams in Block 2 were analyzed using the AU480 clinical chemistry analyzer (Beckman Coulter Inc.). Reagents and calibration standards used to measure alkaline phosphatase (ALP), alanine aminotransferase (ALT), aspartate aminotransferase (AST), blood urea nitrogen (BUN), serum creatinine, urine creatinine, glucose (Glu), total protein (TP), triglyceride (Trig), high-density lipoprotein (HDL), cholesterol (Chol), and albumin (ALB) were purchased from Beckman Coulter Inc. Reagents for sorbitol dehydrogenase (SDH), total bile acid (TBA), and micro-TP were purchased from Sekisui Diagnostics. The reagent used to measure low-density lipoprotein (LDL) was purchased form Diazyme Laboratories.

[1] = Litter parameters at necropsy (implantation sites, resorptions, viable and nonviable embryos); type: in vivo, mouse (CD-1); conditions: female, CD-1, mouse, in vivo, oral, percent of implantation sites
Protocol: On the day of necropsy, dams received daily oral gavage between 0700 and 0800 hours and were weighed and then euthanized humanely by swift decapitation, and serum was collected. In Block 1, necropsies were completed from 0800 to 1600 hours, and in Block 2, necropsies were completed from 0800 to 1200 hours. Serum from dams euthanized in Block 1 was snap frozen for internal dosimetry analyses. Serum and urine from Block 2 dams were reserved for clinical chemistry analyses. In both blocks, the uterus was removed, and total implantation sites were counted based on gross observation of an implantation nodule along the uterine horn. Viable embryos, nonviable embryos, and sites of resorption were counted based on gross observation. Embryos were considered viable if they were properly formed, were not pale in color, and were of similar size to neighboring embryos. Embryos that were poorly formed and pale in color (without heartbeat) were considered nonviable. Sites of resorption were defined as a dark red–appearing clot-like nodule apparent on gross observation.

## N.O=C(O)C(F)(OC(F)(F)C(F)(F)C(F)(F)F)C(F)(F)F (stereo not drawn) [GenX, ammonium 2,3,3,3-tetrafluoro-2-(heptafluoropropoxy)propanoate]
Maternal liver
  Incidence of livers with adverse outcomes including cytoplasmic alteration: 100%
Maternal liver; E11.5, 2 mg/kg/d
  CA, any severity: %: 100%
  CA, any severity: N: 5
  CA, marked: %: 0%
  CA, marked: N: 0
  CA, minimal to mild: %: 100%
  CA, minimal to mild: N: 5
  CA, moderate: %: 0%
  CA, moderate: N: 0
  Focal regions of classic necrosis: %: 0%
  Focal regions of classic necrosis: N: 0
  Increase in cell death: %: 80%
  Increase in cell death: N: 4
  Increase in mitotic figures: %: 60%
  Increase in mitotic figures: N: 3
  Vacuolation, any severity: %: 0%
  Vacuolation, any severity: N: 0
  Vacuolation, mild: %: 0%
  Vacuolation, mild: N: 0
  Vacuolation, minimal: %: 0%
  Vacuolation, minimal: N: 0
  Vacuolation, moderate: %: 0%
  Vacuolation, moderate: N: 0
Maternal liver; E11.5, 10 mg/kg/d
  CA, any severity: %: 100%
  CA, any severity: N: 5
  CA, marked: %: 60%
  CA, marked: N: 3
  CA, minimal to mild: %: 0%
  CA, minimal to mild: N: 0
  CA, moderate: %: 40%
  CA, moderate: N: 2
  Focal regions of classic necrosis: %: 20%
  Focal regions of classic necrosis: N: 1
  Increase in cell death: %: 60%
  Increase in cell death: N: 3
  Increase in mitotic figures: %: 80%
  Increase in mitotic figures: N: 4
  Vacuolation, any severity: %: 100%
  Vacuolation, any severity: N: 5
  Vacuolation, mild: %: 0%
  Vacuolation, mild: N: 0
  Vacuolation, minimal: %: 100%
  Vacuolation, minimal: N: 5
  Vacuolation, moderate: %: 0%
  Vacuolation, moderate: N: 0
Maternal liver; E17.5, 2 mg/kg/d
  CA, any severity: %: 100%
  CA, any severity: N: 5
  CA, marked: %: 0%
  CA, marked: N: 0
  CA, minimal to mild: %: 40%
  CA, minimal to mild: N: 2
  CA, moderate: %: 60%
  CA, moderate: N: 3
  Focal regions of classic necrosis: %: 20%
  Focal regions of classic necrosis: N: 1
  Increase in cell death: %: 0%
  Increase in cell death: N: 0
  Increase in mitotic figures: %: 0%
  Increase in mitotic figures: N: 0
  Vacuolation, any severity: %: 0%
  Vacuolation, any severity: N: 0
  Vacuolation, mild: %: 0%
  Vacuolation, mild: N: 0
  Vacuolation, minimal: %: 0%
  Vacuolation, minimal: N: 0
  Vacuolation, moderate: %: 0%
  Vacuolation, moderate: N: 0
Maternal liver; E17.5, 10 mg/kg/d
  CA, any severity: %: 100%
  CA, any severity: N: 5
  CA, marked: %: 100%
  CA, marked: N: 5
  CA, minimal to mild: %: 0%
  CA, minimal to mild: N: 0
  CA, moderate: %: 0%
  CA, moderate: N: 0
  Focal regions of classic necrosis: %: 20%
  Focal regions of classic necrosis: N: 1
  Increase in cell death: %: 100%
  Increase in cell death: N: 5
  Increase in mitotic figures: %: 0%
  Increase in mitotic figures: N: 0
  Vacuolation, any severity: %: 100%
  Vacuolation, any severity: N: 5
  Vacuolation, mild: %: 60%
  Vacuolation, mild: N: 3
  Vacuolation, minimal: %: 40%
  Vacuolation, minimal: N: 2
  Vacuolation, moderate: %: 0%
  Vacuolation, moderate: N: 0
[1]; 2 mg/kg/d, E11.5
  viability: 95 ± 6.2%
[1]; 2 mg/kg/d, E17.5
  viability: 98.1 ± 4.6%
[1]; 10 mg/kg/d, E11.5
  viability: 92.4 ± 9.3%
[1]; 10 mg/kg/d, E17.5
  viability: 96.5 ± 5.3%

## O=C(O)C(F)(F)C(F)(F)C(F)(F)C(F)(F)C(F)(F)C(F)(F)C(F)(F)F [PFOA, Perfluorooctanoic acid]
Maternal liver
  Incidence of livers with adverse outcomes including cytoplasmic alteration: 100%
Maternal liver; E11.5, 1 mg/kg/d
  CA, any severity: %: 100%
  CA, any severity: N: 5
  CA, marked: %: 0%
  CA, marked: N: 0
  CA, minimal to mild: %: 100%
  CA, minimal to mild: N: 5
  CA, moderate: %: 0%
  CA, moderate: N: 0
  Focal regions of classic necrosis: %: 0%
  Focal regions of classic necrosis: N: 0
  Increase in cell death: %: 20%
  Increase in cell death: N: 1
  Increase in mitotic figures: %: 40%
  Increase in mitotic figures: N: 2
  Vacuolation, any severity: %: 0%
  Vacuolation, any severity: N: 0
  Vacuolation, mild: %: 0%
  Vacuolation, mild: N: 0
  Vacuolation, minimal: %: 0%
  Vacuolation, minimal: N: 0
  Vacuolation, moderate: %: 0%
  Vacuolation, moderate: N: 0
Maternal liver; E11.5, 5 mg/kg/d
  CA, any severity: %: 100%
  CA, any severity: N: 5
  CA, marked: %: 100%
  CA, marked: N: 5
  CA, minimal to mild: %: 0%
  CA, minimal to mild: N: 0
  CA, moderate: %: 0%
  CA, moderate: N: 0
  Focal regions of classic necrosis: %: 40%
  Focal regions of classic necrosis: N: 2
  Increase in cell death: %: 60%
  Increase in cell death: N: 3
  Increase in mitotic figures: %: 100%
  Increase in mitotic figures: N: 5
  Vacuolation, any severity: %: 100%
  Vacuolation, any severity: N: 5
  Vacuolation, mild: %: 100%
  Vacuolation, mild: N: 5
  Vacuolation, minimal: %: 0%
  Vacuolation, minimal: N: 0
  Vacuolation, moderate: %: 0%
  Vacuolation, moderate: N: 0
Maternal liver; E17.5, 1 mg/kg/d
  CA, any severity: %: 100%
  CA, any severity: N: 5
  CA, marked: %: 0%
  CA, marked: N: 0
  CA, minimal to mild: %: 0%
  CA, minimal to mild: N: 0
  CA, moderate: %: 100%
  CA, moderate: N: 5
  Focal regions of classic necrosis: %: 0%
  Focal regions of classic necrosis: N: 0
  Increase in cell death: %: 100%
  Increase in cell death: N: 5
  Increase in mitotic figures: %: 0%
  Increase in mitotic figures: N: 0
  Vacuolation, any severity: %: 0%
  Vacuolation, any severity: N: 0
  Vacuolation, mild: %: 0%
  Vacuolation, mild: N: 0
  Vacuolation, minimal: %: 0%
  Vacuolation, minimal: N: 0
  Vacuolation, moderate: %: 0%
  Vacuolation, moderate: N: 0
Maternal liver; E17.5, 5 mg/kg/d
  CA, any severity: %: 100%
  CA, any severity: N: 6
  CA, marked: %: 100%
  CA, marked: N: 6
  CA, minimal to mild: %: 0%
  CA, minimal to mild: N: 0
  CA, moderate: %: 0%
  CA, moderate: N: 0
  Focal regions of classic necrosis: %: 0%
  Focal regions of classic necrosis: N: 0
  Increase in cell death: %: 100%
  Increase in cell death: N: 6
  Increase in mitotic figures: %: 0%
  Increase in mitotic figures: N: 0
  Vacuolation, any severity: %: 100%
  Vacuolation, any severity: N: 6
  Vacuolation, mild: %: 0%
  Vacuolation, mild: N: 0
  Vacuolation, minimal: %: 0%
  Vacuolation, minimal: N: 0
  Vacuolation, moderate: %: 100%
  Vacuolation, moderate: N: 6
[1]; 1 mg/kg/d, E11.5
  viability: 96 ± 3.3%
[1]; 1 mg/kg/d, E17.5
  viability: 96.8 ± 4.1%
[1]; 5 mg/kg/d, E11.5
  viability: 95.9 ± 5.9%
[1]; 5 mg/kg/d, E17.5
  viability: 97.7 ± 3.4%
